# Assay results reported in the supplement of paper PMC10307832.
# Assays:
# Test in all cases: relative viability (nuclei count vs DMSO), 5 days (fraction); higher = more cells survive
# [1] = compound: CC1=NC=CC(=C1)C2=CC=C(C=C2)CC(=O)NC3=CC=C(C=C3)C4=CN=CC=C4 [Wnt-C59] + Cc1nc(NC(=O)N2CCC[C@H]2C(N)=O)sc1-c1ccnc(C(C)(C)C(F)(F)F)c1 [Alpelisib] (partner 2 µM)
# How it was run: (§1)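 A single step with final 0.05% Triton X-100, 1% formaldehyde and 1 ug/ml Hoechst fixed the cells and stained nuclei 5 days after treatment. Lung cancer cell lines in 1536-well plates had been treated by pin tool the day after seeding with one drug alone or a fixed anchor-drug dose plus five library-drug doses (not always all listed) in √10 steps, and nuclei were counted on 4× images. Relative viability is the ratio of nuclei in treated wells to nuclei in vehicle wells, taken as the median of duplicate plates.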
# [2] = compound: CS(=O)(=O)CCNCc1ccc(-c2ccc3ncnc(Nc4ccc(OCc5cccc(F)c5)c(Cl)c4)c3c2)o1 [Lapatinib] + CC(=O)Nc1cccc(-n2c(=O)n(C3CC3)c(=O)c3c(Nc4ccc(I)cc4F)n(C)c(=O)c(C)c32)c1 [Trametinib] (partner 0.02 µM)
# How it was run: as §1
# [3] = compound: CS(=O)(=O)CCNCc1ccc(-c2ccc3ncnc(Nc4ccc(OCc5cccc(F)c5)c(Cl)c4)c3c2)o1 [Lapatinib] + CC(C)C[C@H](NC(=O)[C@H](Cc1ccccc1)NC(=O)c1cnccn1)B(O)O [Bortezomib] (partner 0.002 µM)
# How it was run: as §1
# [4] = compound: CS(=O)(=O)CCNCc1ccc(-c2ccc3ncnc(Nc4ccc(OCc5cccc(F)c5)c(Cl)c4)c3c2)o1 [Lapatinib] + CCNC(=O)c1noc(-c2cc(C(C)C)c(O)cc2O)c1-c1ccc(CN2CCOCC2)cc1 [Luminespib] (partner 0.01 µM)
# How it was run: as §1
Cell Line,relative viability ([1]; first compound 0.001 µM),relative viability ([1]; first compound 0.01 µM),relative viability ([1]; first compound 0.03162 µM),relative viability ([1]; first compound 0.1 µM),relative viability ([2]; first compound 0.02 µM),relative viability ([2]; first compound 0.06325 µM),relative viability ([2]; first compound 0.2 µM),relative viability ([2]; first compound 0.6325 µM),relative viability ([2]; first compound 2 µM),relative viability ([3]; first compound 0.02 µM),relative viability ([3]; first compound 0.06325 µM),relative viability ([3]; first compound 0.2 µM),relative viability ([3]; first compound 0.6325 µM),relative viability ([3]; first compound 2 µM),relative viability ([4]; first compound 0.02 µM),relative viability ([4]; first compound 0.06325 µM),relative viability ([4]; first compound 0.2 µM),relative viability ([4]; first compound 0.6325 µM),relative viability ([4]; first compound 2 µM)
NCI-H1666,0.874,0.895,0.974,0.942,0.722,0.718,0.727,0.674,0.501,0.761,0.619,0.848,0.877,0.378,0.869,0.955,0.922,0.725,0.502
NCI-H1792,0.707,0.693,0.806,0.785,–,–,0.402,0.457,0.352,0.892,0.718,0.922,0.923,1.02,–,–,0.413,0.403,0.255
LCLC-103H,0.951,0.969,1.04,1.16,0.659,0.641,0.664,0.668,0.631,–,1.03,1.13,1.06,1.04,0.954,0.82,0.877,0.891,0.852
BEN,1.11,0.993,1.37,0.957,1.05,0.898,1.05,0.931,0.999,0.665,0.783,0.637,0.781,0.608,–,0.564,0.229,0.402,0.417
COR-L 105,1.19,1.03,0.93,0.78,0.433,0.419,0.402,0.363,0.393,0.503,0.512,0.637,0.524,0.378,0.592,0.698,0.857,0.716,0.6
LC-2-ad,0.824,0.846,0.953,0.778,–,0.804,0.906,0.864,0.837,–,0.936,0.994,1.14,0.96,–,0.865,1.2,0.988,0.942
NCI-H358,0.917,0.825,0.901,0.905,0.135,0.108,0.122,0.123,0.121,–,–,–,–,–,–,0.159,–,0.255,0.173
HARA,0.773,0.645,0.959,0.787,0.476,0.316,0.331,0.36,0.304,1.08,0.579,1.05,0.961,0.694,–,0.58,0.54,0.499,0.399
NCI-H1944,0.767,0.755,0.785,0.755,0.41,0.35,0.388,0.322,0.288,–,–,–,–,–,0.723,0.435,0.623,0.552,0.522
